From patent US20020107193A1, “Therapeutic uses for IP3 receptor-mediated calcium channel modulators” (priority 2000, published 2002)
Entries after “also recorded” stand apart in the source; their conditions may differ.

Experiments:
IP3 receptor = settings: Gafni et al., 1997; cited from earlier work
immune cell line = test: Proinflammatory cytokine production in an immune cell line; format: cell-based
[1] = test system: IP3 receptors on microsomes; test: Microsome extract (MSE) effect on cytoplasmic NF-κB binding activity; format: biochemical, rat
Description: Cerebral cortices from adult female Sprague-Dawley rats were homogenized (20 strokes at 300 rpm) with a Teflon homogenizer in ice-cold buffer containing 1 mM EDTA, 0.32 M sucrose, 0.1 mM dithiothreitol and 1 mM HEPES as described previously (Chen et al., 1998, Diabetes 47:874-81) and cytoplasmic and microsome fractions were isolated by differential centrifugation. Briefly, tissue fragments and cellular debris were removed by centrifugation at 500 g for 10 min and supernatants were centrifuged at 20,000 g for 20 min to pellet intact mitochondria and nuclei. The supernatant was then centrifuged at 100,000 g for 1 h in order to obtain the cytoplasmic fraction and the microsomal pellet enriched in endoplasmic reticulum and golgi membranes. Microsome extracts (MSE) were prepared by suspending microsomes in 1:100 v/v ice-cold buffer and centrifuging at 100,000× g for 1 hr. Microsomes were then re-suspended in 1:2 v/v volume buffer and treated as described below. At the end of the treatment, the suspension was centrifuged at 100,000 g for 1 h, and supernatants were used as MSE. For experiments involving incubation of MSE with cytoplasmic extract, 3 μl of MSE were added to 10 μl cytoplasmic extract and mixtures were incubated at room temperature for 1 h.
[…] After 1 h at room temperature, samples were examined for NF-κB binding activity.
Indeed, the role calcium plays in this paradigm seems to be as an intraluminal signal.

[2] = test system: macrophage-tropic CCR5-utilizing HIV CSF; test: p24 antigen in media of HIV-infected peripheral blood lymphocytes; format: cell-based; settings: for p24 levels, of controls: day 2
Description: Peripheral blood lymphocytes, previously stimulated for 72 hours with PHA, were divided into 3 groups, designated T-HIV (RPMI-10 media containing 1 μM XeC and 0.1% DMSO), N-HIV (RPMI-10 media containing 0.1% DMSO) and HIV (RPMI-10 media). […] The cells were then infected with a macrophage-tropic CCR5-utilizing HIV CSF for 3 hours at 37° and then washed to remove excess virus. All groups were cultured in RPMI-10% FCS+10U/ml IL-2. Referring to FIGS. 7-11, cells were incubated at 37° C. in 5% CO2. At stated time points shown in the aforementioned figures, spent media was removed and replace with fresh media. The media was tested for the presence of p24 antigen as a surrogate for HIV infection and replication. […] The significance of using the CCR5 utilizing macrophage-tropic virus JR-CSF is that this is the type of virus generally transmitted sexually.

NF-κB = test: EMSA of NF-κB binding activity in cultured primary cortical neurons; format: cell-based, rat
Description: Cerebral cortices were removed from embryonic day 18 Sprague-Dawley rats (Harlan, Indianapolis, Ind.). Cells were dissociated as described previously (Mattson et al., 1995, J. Neurochem. 65:1740-1751.) and were seeded into polyethyleneimine-coated 60 mm culture dishes containing Eagle's Minimum Essential Medium supplemented with 26 mM NaHCO3, 40 mM glucose, 20 mM KCl, 1 mM sodium pyruvate, 10% (v/v) heat-inactivated fetal bovine serum (Sigma, St. Louis, Mo.), and 0.001% gentamycin sulfate. After a 3-5 h incubation period to allow for cell attachment, the medium was replaced with 2 ml of Neurobasal Medium with B27 supplements (GIBCO Life Technologies, Grand Island, N.Y.). […] Experimental treatments were performed on 7-to-9-day-old neuronal cultures in which there were approximately 5% contaminating glial cells.
Total cell extracts were prepared as described (Baeuerle and Baltimore, 1988, Cell 53:211-217). Briefly, cells were harvested, washed twice with ice-cold PBS and lysed for 30 min at 4° C. in Totex buffer (20 mM HEPES, pH 7.9, 350 mM NaC1, 20% glycerol, 1% NP-40, 1 mM MgC12, 0.5 mM EDTA, 0.1 mM EGTA, 5 mM DTT, 0.1% PMSF, 1% aprotinin, 4 μg/ml leupeptin). Samples were centrifuged at 14,000× g for 10 min and aliquots of supernatant were collected and stored at −70° C. until taken for assay. The protein content of the extract (supernatant) was measured by Bradford method (BIO-RAD Laboratories, Ercules, Calif., USA).
After 20 min at room temperature, reaction products were separated on a 7% non-denaturing polyacrylamide gel. Competition experiments were performed by incubating extracts with labeled oligonucleotide probe in the presence of 100-fold molar excess unlabeled NF-KB or CREB oligonucleotide. To characterize the NF-KB complexes, supershift assays were performed. Extracts were preincubated for 45 min at room temperature with antibodies recognizing either p50 or p65 sub-units of NF-κB (Santa Cruz Biotechnology, Santa Cruz, Calif.) or c-Fos (Oncogene Research Products, Cambridge, Mass.). The mixtures were further incubated with ^32P-labeled probe and resolved as described above. Radioactivity of dried gels was detected by exposure to Kodak X-Omat film and images on the developed film were scanned into a computer using a UMAX 1200s scanner. Densitometry was performed using Scion Image software (Scion Inc., Frederick, Md.). Paint Shop Pro software (JASC Inc. Minneapolis, Minn.) was used for preparation of the final figures.
The possible involvement of endoplasmic reticulum pools of intracellular calcium regulated by IP3 receptors in controlling basal levels of NF-κB was investigated using Xestospongin C (XeC) a specific membrane permeable modulator of IP3-mediated Ca^2+release (Gafni et al., 1997, Neuron 19:723-733; Hu et al., 1999, J. Biol. Chem. 274:33995-33998), and thapsigargin (Tg), a specific inhibitor of ER calcium/ATPase (Thastrup et al., 1990, Proc. Natl. Acad. Sci. USA 87:2466-2470; Davidson and Varhol, 1995, J. Biol. Chem. 270:11731-11734.). Cultured primary cortical neurons were treated with either 1 μM XeC, 100 nM Tg or vehicle for 6 h and protein extracts were analyzed for NF-κB binding activity by EMSA electrophoresis.

cardiac cells = settings: Hu et al., 1999, cited from earlier work

Compound: C1CCC[C@H]2CCCN3CC[C@@H](CCCCCC[C@@H]4CCCN5CC[C@@H](CC1)O[C@@H]45)O[C@@H]23 [XeC, Xestospongin C]
- block of IP3-mediated calcium release (IP3 receptor): potent blockers
- proinflammatory cytokine production (immune cell line): inhibited
- NF-κB stimulating activity of microsomes pretreated then given calcium ([1]; XeC pretreatment followed by calcium): produced no NF-κB stimulating activity
- effect of microsome pretreatment on IP3-induced NF-κB stimulating properties of MSE ([1]; XeC pretreatment of microsomes): completely abolished this effect
- p24 antigen as surrogate for HIV infection and replication, relative to DMSO ([2]; 1 μM XeC, 0.1% DMSO, overall statement): inhibition
- p24 levels, of controls ([2]; X1: XeC once 2 hours pre-infection, FIG. 7): ~50%
- p24 levels ([2]; X1: XeC once 2 hours pre-infection, day 3, FIG. 7): increased to approximately control levels
- p24 levels ([2]; X1: XeC once pre-infection, day 3, third experiment, FIG. 10): reduced relative to D1 and D2
- p24 levels ([2]; X1: XeC once pre-infection, day 4, third experiment, FIG. 10): increased to near control levels
- p24 levels ([2]; X1: XeC once pre-infection, subsequent experiment, FIG. 8): no effect was seen
- p24 levels, of controls ([2]; X2: XeC 2 hours pre-infection and 6 hours post-infection, FIG. 7): approximately 80%
- p24 levels ([2]; X2: XeC pre- and post-infection, day 3, FIG. 7): increased to approximately control levels
- p24 levels ([2]; X2: XeC pre- and post-infection, day 3, third experiment, FIG. 10): reduced relative to D1 and D2
- p24 levels ([2]; X2: XeC pre- and post-infection, day 4, FIG. 9): increase to near wild-type levels
- p24 levels, of the DMSO controls ([2]; X2: XeC pre- and post-infection, day 4, third experiment, FIG. 10): approximately 50%
- p24 levels ([2]; X2: XeC pre- and post-infection, days 2 and 3, subsequent experiment, FIG. 8): greatly reduced
- effect on TNFα-induced NF-κB activation (NF-κB; 1 μM XeC 30 min prior to 100 ng/ml TNFα for 6 h): completely abolished; also recorded: significantly inhibited
- effect on thapsigargin-induced elevation in NF-κB binding (NF-κB; 1 μM XeC pretreatment, 100 nM Tg, 6 h): completely abolished the elevation
- effect on glutamate-induced elevation in NF-κB binding (NF-κB; 1 μM XeC pretreatment, 20 μM glutamate, 6 h): completely abolished the elevation; also recorded: NF-κB binding below that of control; also recorded: totally abolish this induction
- basal NF-κB binding activity relative to control levels (NF-κB; cultured primary cortical neurons, 6 h, 1 μM XeC or 100 nM Tg, EMSA): statistically significant (p<0.05) reduction; also recorded: can inhibit basal levels of NF-κB binding
- frequency of calcium oscillations (cardiac cells): decreased the frequency
- NF-κB activity (cardiac cells; histamine stimulation): parallel decrease
